US20090137652A1, “METHODS FOR NEUROPROTECTION” (priority 2005, published 2009)

Assays:
[1] = system: rats subjected to Li-pilo induced SE; experiment: Quantification of cell densities after lithium-pilocarpine SE (Example 1); format: in vivo, rat; settings: for cell loss, CA1 pyramidal layer: significant vs pilo-DZP
Procedure: The effects of increasing doses of the test compound were studied on 3 groups of rats. The animals of the first group received 10 mg/kg of the test compound, i.p., 1 h after the onset of SE (pilo-TC10) while the animals of groups 2 and 3 received 30 and 60 mg/kg of the test compound (pilo-TC30 and pilo-TC60), respectively.
Another group was injected with 2 mg/kg diazepam (DZP, i.m.) at 1 h after the onset of SE. This is a standard treatment to improve animals survival after SE (pilo-DZP). The control group received saline instead of pilocarpine and the test compound (saline-saline). The pilo-test compound rats surviving SE were then injected about 10 h after the first test compound injection with a second i.p. injection of the same dose of the test compound and were maintained under a twice daily treatment with the test compound for 6 additional days. Pilo-DZP received a second injection of 1 mg/kg DZP on the day of SE at about 10 h after the first one. Thereafter, Pilo-DZP and saline-saline rats received twice daily an equivalent volume of saline.
Quantification of cell densities was performed at […] after SE on 8 pilo-DZP, 8 pilo-TC10, 7 pilo-TC30, 7 pilo-TC60, and 6 saline-saline rats. At 14 days after SE, animals were deeply anesthetized with […] pentobarbital (Dolethal®, Vetoquinol, Lure, France. Brains were then removed and frozen. Serial 20 μm slices were cut in a cryostat, air-dried during several days before thionine staining.
Quantification of cell densities was performed with a 10×10 boxes 1 cm^2 microscopic grid on coronal sections according to the stereotaxic coordinates of the rat brain atlas (Paxinos and Watson, 1986, The Rat brain in Stereotaxic Coordinates, 2nd ed. Academic Press, San Diego). Cell counts were performed twice in a blind manner and were the average of at least 3 values from 2 adjacent sections in each individual animal. Counts involved only cells larger than 10 μm, smaller ones being considered as glial cells.
For the comparison of the characteristics of SE in pilo-saline and pilo-test compound animals, a non-paired Student's t-test was used. The comparison between the number of rats seizing in both groups was performed by means of a Chi square test. For neuronal damage, statistical analysis between groups was performed using ANOVA followed by a Fisher's test for multiple comparisons using the Statview software (Fisher R A, 1946a, Statistical Methods for Research Workers (10th edition) Oliver & Boyd, Edinburgh; Fisher R A, 1946b, The Design of Experiments (4th edition) Oliver & Boyd, Edinburgh)

[2] = system: rats subjected to li-pilo SE; experiment: Quantification of cell densities 14 days after lithium-pilocarpine SE (Example 2); format: in vivo, rat; settings: 14 days after SE
Procedure: All rats received lithium chloride (3 meq/kg, i.p., Sigma, St Louis, Mo., U.S.A.) and about 20 h later, all animals received also methylscopolamine bromide (1 mg/kg, s.c., Sigma) that was administered to limit the peripheral effects of the convulsant. SE was induced by injecting pilocarpine hydrochloride (25 mg/kg, s.c., Sigma) 30 min after methylscopolamine. The effects of increasing doses of TC (RWJ) were studied in 5 groups of rats. […] The control group received vehicle instead of pilocarpine and TC.
At the moment, neuronal counting is still in progress in the second group of animals studied for epileptogenesis and long-term counting and the data concerning that part of the study will not be included in the present report. For neuronal counting, animals were deeply anesthetized with […] pentobarbital (Dolethal®, Vetoquinol, Lure, France). Brains were then removed and frozen. Serial 20 μm slices were cut in a cryostat, air-dried during several days before thionine staining. […] The grid of counting was placed on a well defined area of the cerebral structure of interest and counting was carried out with a microscopic enlargement of 200- or 400-fold defined for each single cerebral structure. Cell counts were performed twice on each side of three adjacent sections for each region by a single observer unaware of the animal's treatment. The number of cells obtained in the 12 counted fields in each cerebral structure was averaged. This procedure was used to minimize the potential errors that could result from double counting leading to overestimation of cell numbers. […] Counts involved only neurons with cell bodies larger than 10 μm. Cells with small cell bodies were considered as glial cells and were not counted.
For neuronal damage and epileptogenesis, statistical analysis between groups was performed by means of a one-way analysis of variance followed by a post-hoc Dunnett or Fisher test using the Statistica software.

NC(=O)OC[C@@H](O)c1ccccc1Cl [Formula 7]
neuroprotection compared to pilo-DZP rats, ventral entorhinal cortex layers III-IV ([1]; TC60 (60 mg/kg)): 31%
reduction of neuronal damage recorded in pilo-DZP rats, piriform cortex layer II ([1]; TC60 (60 mg/kg)): 41%
reduction of neuronal damage recorded in pilo-DZP rats, piriform cortex layers III-IV ([1]; TC60 (60 mg/kg)): 44%
more damage (worsening of cell loss) compared with pilo-DZP rats, dorsal entorhinal cortex layers III-IV ([1]; pilo-TC10 (10 mg/kg)): 28%
more damage (worsening of cell loss) compared with pilo-DZP rats, ventral entorhinal cortex layers III-IV ([1]; pilo-TC10 (10 mg/kg)): 35%
cell loss, CA1 pyramidal layer ([1]; pilo-TC30 (30 mg/kg)): 35%
cell loss, CA1 pyramidal layer ([1]; pilo-TC60 (60 mg/kg)): 16%
cell loss, hilus of the dentate gyrus ([1]; pilo-test compound animals (10, 30, 60 mg/kg)): 69-72%
reduction of neuronal damage, lateral thalamic nucleus ([1]; test compound 60 mg/kg): 65%
reduction of neuronal damage, mediodorsal thalamic nucleus ([1]; test compound 60 mg/kg): 42%
protection in CA3b ([1]; test compound 60 mg/kg vs pilo-DZP): significantly neuroprotective
protection in the CA3a area ([1]; test compound 10, 30, 60 mg/kg vs pilo-DZP): did not afford any protection
neuronal drop out, layer II of the dorsal piriform cortex ([2]; TC 60 mg/kg, significant vs DZP): 25%
damage remaining, ventral entorhinal cortex layer II ([2]; TC 90 mg/kg): 4%
damage remaining, ventral entorhinal cortex layers III/IV ([2]; TC 90 mg/kg): 17%
neuronal density as % of control levels, piriform cortex ([2]; TC 120 mg/kg): 78-96%
neurons surviving, all parts of the entorhinal cortex ([2]; TC 120 mg/kg): 85-94%
cell loss, CA1 pyramidal cell layer ([2]; TC30, 60 or 90 rats, significant vs DZP): 36-47%
neuronal loss, hilus of the dentate gyrus ([2]; TC120 group, not significant vs DZP): 53%
cell loss, CA1 pyramidal cell layer ([2]; TC120 group, significant vs DZP): 12%
neuronal drop out, thalamic nuclei ([2]; TC120 rats): 4-19%
number of neurons as % of the control level, all amygdala nuclei ([2]; TC highest dose (120 mg/kg)): 86-99%
number of neuronal cell bodies, Amygdala, Basolateral ([2]; pilo-TC30 (30 mg/kg), n = 8): 27.3 ± 4.9**°
number of neuronal cell bodies, Amygdala, Medial, dorsal anterior ([2]; pilo-TC30 (30 mg/kg), n = 8): 46.8 ± 5.0
number of neuronal cell bodies, Amygdala, Medial, ventral posterior ([2]; pilo-TC30 (30 mg/kg), n = 8): 22.3 ± 1.8
number of neuronal cell bodies, Cerebral cortex, Entorhinal, layer II, dorsal ([2]; pilo-TC30 (30 mg/kg), n = 8): 23.4 ± 0.6
number of neuronal cell bodies, Cerebral cortex, Entorhinal, layer II, ventral ([2]; pilo-TC30 (30 mg/kg), n = 8): 22.7 ± 0.9
number of neuronal cell bodies, Cerebral cortex, Entorhinal, layer III/IV, dorsal ([2]; pilo-TC30 (30 mg/kg), n = 8): 22.3 ± 0.5
number of neuronal cell bodies, Cerebral cortex, Entorhinal, layer III/IV, ventral ([2]; pilo-TC30 (30 mg/kg), n = 8): 13.2 ± 1.9
number of neuronal cell bodies, Cerebral cortex, Piriform, layer II, dorsal ([2]; pilo-TC30 (30 mg/kg), n = 8): 15.7 ± 2.9
number of neuronal cell bodies, Cerebral cortex, Piriform, layer II, ventral ([2]; pilo-TC30 (30 mg/kg), n = 8): 7.2 ± 3.8
number of neuronal cell bodies, Cerebral cortex, Piriform, layer III ([2]; pilo-TC30 (30 mg/kg), n = 8): 1.8 ± 1.8
number of neuronal cell bodies, Hippocampus, CA1 area ([2]; pilo-TC30 (30 mg/kg), n = 8): 39.3 ± 4.4**°°
number of neuronal cell bodies, Hippocampus, CA3 area ([2]; pilo-TC30 (30 mg/kg), n = 8): 35.7 ± 1.8
number of neuronal cell bodies, Hippocampus, Hilus ([2]; pilo-TC30 (30 mg/kg), n = 8): 33.0 ± 3.2
number of neuronal cell bodies, Thalamus, Central medial ([2]; pilo-TC30 (30 mg/kg), n = 8): 75.6 ± 7.7
number of neuronal cell bodies, Thalamus, Dorsolateral, medial, dorsal ([2]; pilo-TC30 (30 mg/kg), n = 8): 64.2 ± 9.3**°°
number of neuronal cell bodies, Thalamus, Dorsolateral, ventral lateral ([2]; pilo-TC30 (30 mg/kg), n = 8): 8.8 ± 2.8
number of neuronal cell bodies, Thalamus, Mediodorsal central ([2]; pilo-TC30 (30 mg/kg), n = 8): 26.9 ± 0.6
number of neuronal cell bodies, Thalamus, Mediodorsal lateral ([2]; pilo-TC30 (30 mg/kg), n = 8): 20.5 ± 0.7
number of neuronal cell bodies, Thalamus, Mediodorsal medial ([2]; pilo-TC30 (30 mg/kg), n = 8): 11.5 ± 2.5
number of neuronal cell bodies, Amygdala, Basolateral ([2]; pilo-TC60 (60 mg/kg), n = 11): 27.8 ± 4.3**°°
number of neuronal cell bodies, Amygdala, Medial, dorsal anterior ([2]; pilo-TC60 (60 mg/kg), n = 11): 58.4 ± 2.8**°
number of neuronal cell bodies, Amygdala, Medial, ventral posterior ([2]; pilo-TC60 (60 mg/kg), n = 11): 26.2 ± 2.9
number of neuronal cell bodies, Cerebral cortex, Entorhinal, layer II, dorsal ([2]; pilo-TC60 (60 mg/kg), n = 11): 23.9 ± 0.5
number of neuronal cell bodies, Cerebral cortex, Entorhinal, layer II, ventral ([2]; pilo-TC60 (60 mg/kg), n = 11): 23.3 ± 0.8
number of neuronal cell bodies, Cerebral cortex, Entorhinal, layer III/IV, dorsal ([2]; pilo-TC60 (60 mg/kg), n = 11): 23.2 ± 0.8
number of neuronal cell bodies, Cerebral cortex, Entorhinal, layer III/IV, ventral ([2]; pilo-TC60 (60 mg/kg), n = 11): 16.5 ± 2.2
number of neuronal cell bodies, Cerebral cortex, Piriform, layer II, dorsal ([2]; pilo-TC60 (60 mg/kg), n = 11): 27.5 ± 2.8**°°
